Laboratory results from US20240301023A1 (priority 2020, published 2024).
Like-named read-outs stand apart in the source and are kept apart here. Square brackets hold non-standard residues; d marks the D form. Ends that are not written are not given here. Peptide text beside a SMILES is read from it. Phe(4-NO2) = N[C@@H](Cc1ccc([N+](=O)[O-])cc1)C(=O)O; Phe(4-Cl) = N[C@@H](Cc1ccc(Cl)cc1)C(=O)O; Phe(4-F) = N[C@@H](Cc1ccc(F)cc1)C(=O)O; NMeR = CN[C@@H](CCCNC(=N)N)C(=O)O; Aoc = NCCCCCCCC(=O)O; Sar = CNCC(=O)O

Assays:
[1] = target: Delta opioid receptor (DOR) (Homo sapiens, UniProt P41143); experiment: cell-based; type: cell-based
[2] = target: Kappa opioid receptor (KOR) (Homo sapiens, UniProt P41145); experiment: cell-based; type: cell-based
Mu opioid receptor (MOR) = Mu opioid receptor (MOR) (Homo sapiens, UniProt P35372); experiment: cell-based; type: cell-based
Stability in rat plasma = type: in vitro ADME; settings: 37° C., 100 μM peptide; for half-life at 100 µM: both sexes, Wistar
Protocol: Stability in plasma was assessed in rat plasma. Plasma was collected in-house from adult mixed-gender Wistar rats, prepared using 2% EDTA as per standard practice. Peptides were added to the rat plasma samples at 37° C. in a water bath with final concentrations of 100 μM (1:9 peptide in water:plasma). The assay was then carried out in the same manner as the assay in bovine trypsin.

[3] = target: T1, bovine pancreatic trypsin (Bos taurus, UniProt P00760); experiment: Stability in bovine trypsin; type: in vitro ADME; settings: bovine pancreatic trypsin 2.5 μg/mL, NH4HCO3 buffer pH 8-8.5, 37° C., 100 μM peptide; for half-life: isolated enzyme trypsin; for half-life at 100 µM: bovine pancreatic trypsin solution
T1 construct: from tissue; host or cells: bovine pancreas
T1 sequence (P00760 24-246): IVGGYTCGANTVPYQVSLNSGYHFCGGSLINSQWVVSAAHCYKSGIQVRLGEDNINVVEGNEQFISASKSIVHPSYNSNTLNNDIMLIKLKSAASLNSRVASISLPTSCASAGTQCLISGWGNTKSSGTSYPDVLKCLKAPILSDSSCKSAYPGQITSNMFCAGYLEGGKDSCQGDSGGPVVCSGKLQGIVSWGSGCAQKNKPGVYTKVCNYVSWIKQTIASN
Protocol: The stability of the peptides was analysed in typsin, plasma and water. Stability of linear peptides is generally low due to rapid degradation by endogenous peptidases and proteases. While stability in bodily fluids is important, absolute stability may not be prudent or desirable due to potential build-up in vivo leading to adverse side effects, and/or hazards to the environment and recirculation of exceptionally stable compounds in waterways. Thus, compounds that are extremely stable in either plasma or typsin are not generally considered “drug-like”.
Stability in bovine trypsin was analysed for SEQ ID Nos. 2 to 7 and 11 to 17. Peptides were added to trypsin solution (bovine pancreatic trypsin 2.5 μg/mL in NH4HCO3 buffer, pH approximately 8-8.5, 37° C.) in a water bath with final concentrations of 100 μM peptide. A 50 μL sample was taken immediately and precipitated in 150 μL of cold acetonitrile (9:1 acetonitrile:water) This sample became the baseline, or t=0 min sample. The trypsin peptide mixture was immediately returned to the water bath and subsequent 50 μL samples were taken at 5, 10, 15, 30, 60 and 120 min. At each time point, the 50 μL sample was collected and immediately added to cold acetonitrile (ACN). Each sample was vortexed for 30 sec and then centrifuged at room temperature (RT) (13K rpm, 5 min). 150 μL of the supernatant was taken and directly place in a glass HPLC vial for LCMS analysis.

KOR = KOR (Homo sapiens, UniProt P41145); experiment: cell-based; type: cell-based; settings: read-out: reduction in maximal response
[4] = read-out: Activity (EC50, nM) MOR
[5] = read-out: Activity (EC50, nM) DOR

Mu opioid receptor (MOR), sequence (P35372 whole entry): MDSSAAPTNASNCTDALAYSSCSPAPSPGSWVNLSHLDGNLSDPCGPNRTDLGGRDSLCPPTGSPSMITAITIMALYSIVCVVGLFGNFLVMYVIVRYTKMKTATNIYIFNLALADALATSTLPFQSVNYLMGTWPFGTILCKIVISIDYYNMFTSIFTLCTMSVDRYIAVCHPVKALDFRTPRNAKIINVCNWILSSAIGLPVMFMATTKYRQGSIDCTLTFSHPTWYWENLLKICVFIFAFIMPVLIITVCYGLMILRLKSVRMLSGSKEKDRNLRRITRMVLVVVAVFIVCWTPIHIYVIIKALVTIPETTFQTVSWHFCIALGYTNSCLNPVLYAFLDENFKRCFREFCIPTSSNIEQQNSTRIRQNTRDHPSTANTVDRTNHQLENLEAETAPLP
Delta opioid receptor (DOR), sequence (P41143 whole entry): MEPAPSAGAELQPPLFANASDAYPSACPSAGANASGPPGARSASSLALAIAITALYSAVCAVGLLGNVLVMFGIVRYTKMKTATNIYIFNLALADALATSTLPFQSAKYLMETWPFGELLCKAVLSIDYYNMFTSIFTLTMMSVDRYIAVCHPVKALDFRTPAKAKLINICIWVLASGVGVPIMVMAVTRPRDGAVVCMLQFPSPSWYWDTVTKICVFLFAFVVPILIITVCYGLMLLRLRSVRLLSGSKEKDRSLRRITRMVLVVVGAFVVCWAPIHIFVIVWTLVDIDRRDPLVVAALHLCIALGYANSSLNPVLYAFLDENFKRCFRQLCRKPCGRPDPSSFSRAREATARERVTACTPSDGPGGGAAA
Kappa opioid receptor (KOR), sequence (P41145 whole entry): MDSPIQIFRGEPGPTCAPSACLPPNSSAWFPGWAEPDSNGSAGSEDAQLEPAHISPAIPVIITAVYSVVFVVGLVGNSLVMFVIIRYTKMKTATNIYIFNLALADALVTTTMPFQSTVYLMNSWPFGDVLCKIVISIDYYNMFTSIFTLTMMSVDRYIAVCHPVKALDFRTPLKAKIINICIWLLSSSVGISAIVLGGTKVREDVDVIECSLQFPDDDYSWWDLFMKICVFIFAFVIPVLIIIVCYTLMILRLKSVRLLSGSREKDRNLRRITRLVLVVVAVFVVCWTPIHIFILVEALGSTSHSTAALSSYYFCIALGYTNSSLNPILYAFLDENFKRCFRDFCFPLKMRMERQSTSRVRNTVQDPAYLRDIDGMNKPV
KOR, sequence (P41145 whole entry): as above

Row | Compound | cAMP assay DOR 1 μM [1] | cAMP assay KOR 1 μM [2] | cAMP assay MOR 1 μM (Mu opioid receptor (MOR)) | cAMP assay DOR 10 μM [1] | cAMP assay KOR 10 μM [2] | half-life at 100 µM (Stability in rat plasma) | cAMP assay MOR 10 μM (Mu opioid receptor (MOR)) | half-life at 100 µM [3] | further results
1 | 2-NH2-Phe-Phe-Leu-Gly-Arg-Arg (FFLGRR; also: 2-NH2 (N-terminal amino modification) on Phe, placement unclear) [SEQ ID NO. 36, reference compound] | no measurable potency | no measurable potency | no measurable potency |  |  |  |  |  | 
2 | CC(C)C[C@H](NC(=O)[C@H](Cc1ccccc1)NC(=O)CN(C)C(=O)[C@@H](N)Cc1ccc(O)cc1)C(=O)N[C@@H](CCCNC(=N)N)C(=O)N[C@H](CCCNC(=N)N)C(N)=O [SEQ ID NO. 3, NH2-Tyr-Sar-Phe-Leu-Arg-DArg-NH2] (H-Y[Sar]FLR[dR]-NH2) | −2.27 | 27.24 | −0.68 | 2.24 | 43.58 | 1.2 h | 2.17 |  | Half Life Trypsin [3]: 0.227 h
3 | CC(C)C[C@H](NC(=O)[C@H](Cc1ccc([N+](=O)[O-])cc1)NC(=O)CN(C)C(=O)[C@@H](N)Cc1ccc(O)cc1)C(=O)N[C@H](CCCNC(=N)N)C(=O)N[C@@H](CCCNC(=N)N)C(N)=O [SEQ ID NO. 5, NH2-Tyr-Sar-(4-NO2)Phe-Leu-DArg-Arg-NH2] (H-Y[Sar][Phe(4-NO2)]L[dR]R-NH2) | 0.05 | 33.44 | −0.05 | 2.02 | 43.14 |  | 4.32 |  | half-life (Stability in rat plasma): 0.478 h; Half Life Trypsin [3]: 54.167 h
4 | CC(C)C[C@H](NC(=O)[C@H](Cc1ccccc1)NC(=O)CN(C)C(=O)[C@@H](N)Cc1ccc(O)cc1)C(=O)N[C@H](CCCNC(=N)N)C(=O)N[C@@H](CCCNC(=N)N)C(N)=O [SEQ ID NO. 6, NH2-Tyr-Sar-Phe-Leu-DArg-Arg-NH2] (H-Y[Sar]FL[dR]R-NH2) | −0.03 | 14.22 | 1.04 | 2.25 | 35.13 |  | 7.84 |  | half-life [3]: 21.1 h
5 | CC(C)C[C@H](NC(=O)[C@H](Cc1ccccc1)NC(=O)CN(C)C(=O)[C@@H](N)Cc1ccc(O)cc1)C(=O)N[C@H](CCCNC(=N)N)C(=O)N[C@H](CCCNC(=N)N)C(N)=O [SEQ ID NO. 7, NH2-Tyr-Sar-Phe-Leu-DArg-DArg-NH2] (H-Y[Sar]FL[dR][dR]-NH2) | −0.68 | 18.27 | 0.13 | 2.53 | 36.03 |  | 4.19 |  | half-life [3]: 9.78 h
6 | CC(C)C[C@H](NC(=O)[C@H](Cc1ccc(Cl)cc1)NC(=O)CN(C)C(=O)[C@@H](N)Cc1ccc(O)cc1)C(=O)N[C@@H](CCCNC(=N)N)C(=O)N[C@H](CCCNC(=N)N)C(N)=O [SEQ ID NO. 11, NH2-Tyr-Sar-(4-Cl)Phe-Leu-Arg-DArg-NH2] (H-Y[Sar][Phe(4-Cl)]LR[dR]-NH2) | −1.18 | 27.7 | −0.86 | 4.27 | 33.99 |  | 1.37 | 0.257 h | 
7 | CC(C)C[C@H](NC(=O)[C@H](Cc1ccc(F)cc1)NC(=O)CN(C)C(=O)[C@@H](N)Cc1ccc(O)cc1)C(=O)N[C@@H](CCCNC(=N)N)C(=O)N[C@H](CCCNC(=N)N)C(N)=O [SEQ ID NO. 12, NH2-Tyr-Sar-(4-F)Phe-Leu-Arg-DArg-NH2] (H-Y[Sar][Phe(4-F)]LR[dR]-NH2) |  |  |  |  |  | 0.532 h |  | 0.228 h | EC50 ([2]; read-out: Activity (EC50, nM) KOR): 6.7 nM; EC50 (Mu opioid receptor (MOR); [4]): 3450 nM
8 | CC(C)C[C@H](NC(=O)[C@H](Cc1ccc(Cl)cc1)NC(=O)CN(C)C(=O)[C@@H](N)Cc1ccc(O)cc1)C(=O)N(C)[C@@H](CCCNC(=N)N)C(=O)N[C@H](CCCNC(=N)N)C(N)=O [SEQ ID NO. 13, NH2-Tyr-Sar-(4-Cl)Phe-Leu-NMA-DArg-NH2] (H-Y[Sar][Phe(4-Cl)]L[NMeR][dR]-NH2) |  |  |  |  |  | 3.99 h |  | 4.6 h | EC50 [1]: > 10000 nM; EC50 (Mu opioid receptor (MOR)): > 10000 nM
9 | CC(C)C[C@H](NC(=O)[C@H](Cc1ccc(F)cc1)NC(=O)CN(C)C(=O)[C@@H](N)Cc1ccc(O)cc1)C(=O)N(C)[C@@H](CCCNC(=N)N)C(=O)N[C@H](CCCNC(=N)N)C(N)=O [SEQ ID NO. 14, NH2-Tyr-Sar-(4-F)Phe-Leu-NMA-DArg-NH2] (H-Y[Sar][Phe(4-F)]L[NMeR][dR]-NH2) |  |  |  |  |  | 5.4 h |  | 27.1 h | EC50 [1, 5]: 1660 nM; EC50 (Mu opioid receptor (MOR); [4]): 4000 nM
10 | CC(C)C[C@H](NC(=O)[C@H](Cc1ccc([N+](=O)[O-])cc1)NC(=O)CN(C)C(=O)[C@@H](N)Cc1ccc(O)cc1)C(=O)N(C)[C@@H](CCCNC(=N)N)C(=O)N[C@H](CCCNC(=N)N)C(N)=O [SEQ ID NO. 15, NH2-Tyr-Sar-(4-NO2)Phe-Leu-NMA-DArg-NH2] (H-Y[Sar][Phe(4-NO2)]L[NMeR][dR]-NH2) |  |  |  |  |  |  |  |  | EC50 [1, 5]: 1320 nM
11 | CC(C)C[C@H](NC(=O)[C@H](Cc1ccc(Cl)cc1)NC(=O)CN(C)C(=O)[C@@H](N)Cc1ccc(O)cc1)C(=O)N[C@@H](CCCCN)C(=O)N[C@H](CCCNC(=N)N)C(N)=O [SEQ ID NO. 16, NH2-Tyr-Sar-(4-Cl)Phe-Leu-Lys-DArg-NH2] (H-Y[Sar][Phe(4-Cl)]LK[dR]-NH2) |  |  |  |  |  | 1.17 h |  |  | Half Life Trypsin [3]: 1.16 h
12 | CC(C)C[C@H](NC(=O)[C@H](Cc1ccc(Cl)cc1)NC(=O)CN(C)C(=O)[C@@H](N)Cc1ccc(O)cc1)C(=O)N[C@@H](CCCNC(=N)N)C(=O)N(C)[C@@H](CCCNC(=N)N)C(N)=O [SEQ ID NO. 17, NH2-Tyr-Sar-(4-Cl)Phe-Leu-Arg-NMA-NH2] (H-Y[Sar][Phe(4-Cl)]LR[NMeR]-NH2) |  |  |  |  |  | 2.9 h |  | > 16.7 h | 
13 | CC[C@H](C)[C@H](NC(=O)[C@@H](CCCNC(=N)N)NC(=O)[C@H](CCCNC(=N)N)NC(=O)[C@H](CC(C)C)NC(=O)[C@H](Cc1ccc(Cl)cc1)NC(=O)CN(C)C(=O)[C@@H](N)Cc1ccc(O)cc1)C(=O)N[C@@H](CCCNC(=N)N)C(N)=O [SEQ ID NO. 20, NH2-Tyr-Sar-(4-Cl)Phe-Leu-Arg-DArg-Ile-Arg-NH2] |  |  |  |  |  |  |  |  | EC50 [1]: 3580 nM; reduction in maximal response after pre-treatment (KOR): ~50%; cAMP activity in the presence of naloxone, KOR cells [2]: significantly inhibited; EC50 (Mu opioid receptor (MOR)): > 10000 nM
14 | CC[C@H](C)[C@H](NC(=O)[C@@H](CCCNC(=N)N)NC(=O)[C@H](CCCNC(=N)N)NC(=O)[C@H](CC(C)C)NC(=O)[C@H](Cc1ccc(Cl)cc1)NC(=O)CN(C)C(=O)[C@@H](N)Cc1ccc(O)cc1)C(=O)N[C@H](CCCNC(=N)N)C(N)=O [SEQ ID NO. 25, NH2-Tyr-Sar-(4-Cl)Phe-Leu-Arg-DArg-Ile-DArg-NH2] |  |  |  |  |  |  |  |  | EC50 [1]: > 10000 nM; EC50 (Mu opioid receptor (MOR)): 1610 nM
15 | CC(C)C[C@H](NC(=O)[C@H](Cc1ccc(Cl)cc1)NC(=O)CN(C)C(=O)[C@@H](N)Cc1ccc(O)cc1)C(=O)N[C@@H](CCCNC(=N)N)C(=O)N[C@H](CCCNC(=N)N)C(=O)NCCCCCCCC(=O)O [SEQ ID NO. 28, NH2-Tyr-Sar-(4-Cl)Phe-Leu-Arg-DArg-C7H14-COOH] (H-Y[Sar][Phe(4-Cl)]LR[dR][Aoc]-OH) |  |  |  |  |  |  |  |  | EC50 [1]: > 10000 nM; EC50 (Mu opioid receptor (MOR)): > 10000 nM
